{
  "source": "patent US9498450B2",
  "about": "“1-aminocyclohexane derivatives for the treatment of cochlear tinnitus” (MERZ PHARMA GmbH & CO. KGaA, priority 2007, dated 2016)",
  "system": "subjects with subjective tinnitus of at least moderate severity",
  "experiment": "Double blind placebo controlled pilot trial of neramexane for treatment of tinnitus (TBF-12/THF-12 total score)",
  "format": "in vivo, human",
  "details": "for Change in TBF-12 total score, Week 16 Neramexane-Placebo LSMean / TBF-12 total score, Change LSMean / TBF-12 total score, Neramexane-Placebo LSMean Diff. ± SE / TBF-12 total score, Week 16 Change Mean ± SD / TBF-12 total score, Week 16 Actual Mean ± SD: ITT-LOCF; for TBF-12 total score, Change LSMean / TBF-12 total score, Neramexane-Placebo LSMean Diff. ± SE / TBF-12 total score, Week 16 Change Mean ± SD: baseline to week 16; for improvement as compared to placebo treatment (difference): 50 mg dose group",
  "protocol": "Visit 1 (screening): After signing the consent form, the subject underwent a physical examination and clinical laboratory testing. Patient eligibility for the study was evaluated via a check of inclusion/exclusion criteria. An initial Tinnitus Interview was conducted. The subject also completed a Tinnitus-Beeinträchtigungs-Fragebogen (THF-12) (i.e., a 12-item German modified and validated version (Greimel K V et al., Tinnitus-Beeinträchtigungs-Fragebogen (THF-12). Manual. Frankfurt am Main: Swets & Zeitlinger B. V.; 2000) of the 25-item Tinnitus Handicap Inventory or THI (Newman C W, et al. Development of the Tinnitus Handicap Inventory. Arch Otolaryngol Head Neck Surg 1996; 122(2): 143-148; Newman C W, et al. Psychometric adequacy of the Tinnitus Handicap Inventory (THI) for evaluating treatment outcome. J Am Acad Audiol 1998; 9(2): 153-160.)), a Hospital Anxiety and Depression Scale—Depression Subscale (HADS-D) Questionnaire and a Hyperacusis (Geräuschüberempfindlichkeit-Fragenbogen (GÜF)) Questionnaire (if applicable).\nVisit 2 (baseline): The subject was asked about adverse events and changes in concomitant medication/disease, which events/changes were documented. The subject was evaluated for study eligibility based on a review of the inclusion/exclusion criteria. Trial procedures as well as allowed and forbidden concomitant medications were reviewed with the subject. An initial Tinnitus Interview was conducted. The subject also completed a THF-12, HADS-D Questionnaire and GÜF Questionnaire (if applicable). The subject was enrolled in the study and study medication (placebo or neramexane) was dispensed as described below.\nVisit 6 (Week 16, end of treatment): This visit occurred at the end of the 12-week fixed-dose double-blind treatment period. The subject was asked about adverse events and changes in concomitant medication/disease, which changes are documented. A clinical laboratory evaluation was performed. A follow-up Tinnitus Interview was conducted, and the subject completed a THF-12, HADS-D Questionnaire and GÜF Questionnaire (if applicable). Pure-tone audiometry (air conduction) was also conducted.\nPrimary Outcome • The change in THF-12 total score from baseline (Visit 2) to the endpoint visit (Visit 6, i.e. Week 16) was the primary efficacy endpoint in this study.\nAll efficacy analyses were performed on the ITT population using the last-observation-carried-forward (LOCF) approach. For sensitivity purposes an analysis of the per-protocol set and of observed cases was performed additionally. All statistical tests used for testing the primary efficacy (confirmatory testing) and secondary efficacy criteria (exploratory), and all other statistical tests used for exploratory analyses were two-sided hypothesis tests performed at the 5% significance level. For all variables standard descriptive statistics were calculated.\nChange from baseline (Visit 2) to Week 16 in THF-12 total score was analyzed using a two-way ANCOVA model with treatment group and study centers as factors and baseline THF-12 total score as covariate. […]",
  "key": {"[1]": {"details": "25 mg/d, subjects with mild hearing loss"}, "[2]": {"details": "25 mg/d, subjects with tinnitus duration 3 to <8 months"}, "[3]": {"details": "25 mg/d, total study population"}, "[4]": {"details": "50 mg/d, subjects with mild hearing loss"}, "[5]": {"details": "50 mg/d, subjects with tinnitus duration 3 to <8 months"}, "[6]": {"details": "50 mg/d, total study population"}, "[7]": {"details": "75 mg/d, subjects with mild hearing loss"}, "[8]": {"details": "75 mg/d, subjects with tinnitus duration 3 to <8 months"}, "[9]": {"details": "75 mg/d, total study population"}},
  "data": [
    {"smiles": "CC1(C)CC(C)(C)CC(C)(N)C1", "note": "[Neramexane, 1-amino-1,3,3,5,5-pentamethylcyclohexane]", "values": [
      {"measurement": "Change in TBF-12 total score, Week 16 Neramexane-Placebo LSMean", "setting": "25 mg/d, HADS-D Anxiety subscale 0-7 at baseline", "value": 0.2},
      {"measurement": "Change in TBF-12 total score, Week 16 Neramexane-Placebo LSMean", "setting": "25 mg/d, HADS-D Anxiety subscale 8-10 at baseline", "value": "−2.3"},
      {"measurement": "Change in TBF-12 total score, Week 16 Neramexane-Placebo LSMean", "setting": "25 mg/d, HADS-D Anxiety subscale >10 at baseline", "value": 2.3},
      {"measurement": "Change in TBF-12 total score, Week 16 Neramexane-Placebo LSMean", "setting": "25 mg/d, HADS-D Depression subscale 0-7 at baseline", "value": "−0.3"},
      {"measurement": "Change in TBF-12 total score, Week 16 Neramexane-Placebo LSMean", "setting": "25 mg/d, HADS-D Depression subscale 8-10 at baseline", "value": 0.6},
      {"measurement": "Change in TBF-12 total score, Week 16 Neramexane-Placebo LSMean", "setting": "25 mg/d, HADS-D Depression subscale >10 at baseline", "value": 3.9},
      {"measurement": "TBF-12 total score, Change LSMean", "setting": "[1]", "value": "−1.3"},
      {"measurement": "TBF-12 total score, Neramexane-Placebo LSMean Diff. ± SE", "setting": "[1]", "value": "0.7 ± 0.9"},
      {"measurement": "TBF-12 total score, Week 16 Change Mean ± SD", "setting": "[1]", "value": "−1.5 ± 3.4"},
      {"measurement": "TBF-12 total score, Week 16 Actual Mean ± SD", "setting": "25 mg/d, subjects with mild hearing loss, score range 0-24", "value": "13.1 ± 5.8"},
      {"measurement": "TBF-12 total score, Change LSMean", "setting": "[2]", "value": "−2.2"},
      {"measurement": "TBF-12 total score, Neramexane-Placebo LSMean Diff. ± SE", "setting": "[2]", "value": "0.0 ± 0.8"},
      {"measurement": "TBF-12 total score, Week 16 Change Mean ± SD", "setting": "[2]", "value": "−2.5 ± 3.0"},
      {"measurement": "TBF-12 total score, Change LSMean", "setting": "[3]", "value": "−1.8"},
      {"measurement": "TBF-12 total score, Neramexane-Placebo LSMean Diff. ± SE", "setting": "[3]", "value": "0.5 ± 0.5"},
      {"measurement": "TBF-12 total score, Week 16 Change Mean ± SD", "setting": "[3]", "value": "−2.0 ± 3.4"},
      {"measurement": "improvement as compared to placebo treatment (difference)", "setting": "patients who showed a mild hearing loss, post-hoc p=0.024", "value": "−1.9", "unit": "points"},
      {"measurement": "improvement as compared to placebo treatment (difference)", "setting": "patients whose onset of tinnitus was three to eight months before treatment, post-hoc p=0.019", "value": "−1.9", "unit": "points"},
      {"measurement": "Change in TBF-12 total score, Week 16 Neramexane-Placebo LSMean", "setting": "50 mg/d, HADS-D Anxiety subscale 0-7 at baseline", "value": "−0.5"},
      {"measurement": "Change in TBF-12 total score, Week 16 Neramexane-Placebo LSMean", "setting": "50 mg/d, HADS-D Anxiety subscale 8-10 at baseline", "value": "−2.9"},
      {"measurement": "Change in TBF-12 total score, Week 16 Neramexane-Placebo LSMean", "setting": "50 mg/d, HADS-D Anxiety subscale >10 at baseline", "value": 0.6},
      {"measurement": "Change in TBF-12 total score, Week 16 Neramexane-Placebo LSMean", "setting": "50 mg/d, HADS-D Depression subscale 0-7 at baseline", "value": "−1.3"},
      {"measurement": "Change in TBF-12 total score, Week 16 Neramexane-Placebo LSMean", "setting": "50 mg/d, HADS-D Depression subscale 8-10 at baseline", "value": "−1.1"},
      {"measurement": "Change in TBF-12 total score, Week 16 Neramexane-Placebo LSMean", "setting": "50 mg/d, HADS-D Depression subscale >10 at baseline", "value": 3.3},
      {"measurement": "TBF-12 total score, Change LSMean", "setting": "[4]", "value": "−3.9"},
      {"measurement": "TBF-12 total score, Neramexane-Placebo LSMean Diff. ± SE", "setting": "[4]", "value": "−1.9 ± 0.8"},
      {"measurement": "TBF-12 total score, Week 16 Change Mean ± SD", "setting": "[4]", "value": "−3.8 ± 3.9"},
      {"measurement": "TBF-12 total score, Week 16 Actual Mean ± SD", "setting": "50 mg/d, subjects with mild hearing loss, score range 0-24", "value": "11.5 ± 5.2"},
      {"measurement": "TBF-12 total score, Change LSMean", "setting": "[5]", "value": "−4.0"},
      {"measurement": "TBF-12 total score, Neramexane-Placebo LSMean Diff. ± SE", "setting": "[5]", "value": "−1.9 ± 0.8"},
      {"measurement": "TBF-12 total score, Week 16 Change Mean ± SD", "setting": "[5]", "value": "−4.2 ± 3.9"},
      {"measurement": "TBF-12 total score, Week 16 Actual Mean ± SD", "setting": "50 mg/d, subjects with tinnitus duration 3 to <8 months, score range 0-24", "value": "10.0 ± 5.1"},
      {"measurement": "TBF-12 total score, Change LSMean", "setting": "[6]", "value": "−3.1"},
      {"measurement": "TBF-12 total score, Neramexane-Placebo LSMean Diff. ± SE", "setting": "[6]", "value": "−0.8 ± 0.5"},
      {"measurement": "TBF-12 total score, Week 16 Change Mean ± SD", "setting": "[6]", "value": "−3.2 ± 4.1"},
      {"measurement": "Change in TBF-12 total score, Week 16 Neramexane-Placebo LSMean", "setting": "75 mg/d, HADS-D Anxiety subscale 0-7 at baseline", "value": 0.1},
      {"measurement": "Change in TBF-12 total score, Week 16 Neramexane-Placebo LSMean", "setting": "75 mg/d, HADS-D Anxiety subscale 8-10 at baseline", "value": "−3.1"},
      {"measurement": "Change in TBF-12 total score, Week 16 Neramexane-Placebo LSMean", "setting": "75 mg/d, HADS-D Anxiety subscale >10 at baseline", "value": 0.3},
      {"measurement": "Change in TBF-12 total score, Week 16 Neramexane-Placebo LSMean", "setting": "75 mg/d, HADS-D Depression subscale 0-7 at baseline", "value": "−0.9"},
      {"measurement": "Change in TBF-12 total score, Week 16 Neramexane-Placebo LSMean", "setting": "75 mg/d, HADS-D Depression subscale 8-10 at baseline", "value": 0.0},
      {"measurement": "Change in TBF-12 total score, Week 16 Neramexane-Placebo LSMean", "setting": "75 mg/d, HADS-D Depression subscale >10 at baseline", "value": 0.4},
      {"measurement": "TBF-12 total score, Change LSMean", "setting": "[7]", "value": "−1.8"},
      {"measurement": "TBF-12 total score, Neramexane-Placebo LSMean Diff. ± SE", "setting": "[7]", "value": "−0.2 ± 0.9"},
      {"measurement": "TBF-12 total score, Week 16 Change Mean ± SD", "setting": "[7]", "value": "−1.9 ± 3.2"},
      {"measurement": "TBF-12 total score, Week 16 Actual Mean ± SD", "setting": "75 mg/d, subjects with mild hearing loss, score range 0-24", "value": "12.0 ± 4.6"},
      {"measurement": "TBF-12 total score, Change LSMean", "setting": "[8]", "value": "−3.3"},
      {"measurement": "TBF-12 total score, Neramexane-Placebo LSMean Diff. ± SE", "setting": "[8]", "value": "−1.1 ± 0.8"},
      {"measurement": "TBF-12 total score, Week 16 Change Mean ± SD", "setting": "[8]", "value": "−3.4 ± 4.0"},
      {"measurement": "TBF-12 total score, Week 16 Actual Mean ± SD", "setting": "75 mg/d, subjects with tinnitus duration 3 to <8 months, score range 0-24", "value": "10.6 ± 5.0"},
      {"measurement": "TBF-12 total score, Week 16 Actual Mean ± SD", "setting": "[9]", "value": "11.0 ± 5.1"},
      {"measurement": "TBF-12 total score, Change LSMean", "setting": "[9]", "value": "−2.8"},
      {"measurement": "TBF-12 total score, Neramexane-Placebo LSMean Diff. ± SE", "setting": "[9]", "value": "−0.5 ± 0.5"},
      {"measurement": "TBF-12 total score, Week 16 Change Mean ± SD", "setting": "[9]", "value": "−2.9 ± 3.9"},
      {"measurement": "benefit compared to patients with HADS score below 10 at baseline", "setting": "50 or 75 mg daily dose monotherapy, patients with HADS total score of 10 or more at baseline", "value": "weaker benefit"},
      {"measurement": "response (effect in treating tinnitus) compared to total study population", "setting": "patients treated within three to eight months of onset of tinnitus and patients with mild hearing loss", "value": "better response"},
      {"measurement": "response to treatment (subgroup analysis)", "setting": "subjects classified by investigators as suffering from cochlear tinnitus", "value": "responded well"}
    ]}
  ]
}
